In US4745185A, “D-arabinose-1,5-diphosphate salts and methods for the treatment of diabetes” (McNeilab, Inc., priority 1985, dated 1988):

Legend:
blood glucose = experiment: Epinephrine-Induced Hyperglycemic Model (EIHM), in vivo; design: species or system male Sprague-Dawley rats; settings: for maximum % lowering (blood glucose): 100 mg/kg i.p., given 30 minutes prior to epinephrine (0.2 mg/kg i.p.), fasted rats, glucose at 45 and 90 minutes
Description: (§1) The utility of compounds of the invention of formula (I) as hypoglycemic agents may be determined by measurement of Ki values as competitive inhibitors of rat liver fructose-1,6-biphosphatase and by measurement of half-maximal concentrations as allosteric activators of rat liver 6-phosphofructo-1-kinase, both of these tests being in vitro. An in vivo test for the activity of compounds of the invention is the Epinephrine-Induced Hyperglycemic Model (EIHM). In the EIHM, male Sprague-Dawley rats from Charles River Laboratories, average weight 200-280 grams, maintained on Lab-Blox® rat chow (Wayne) and provided water ad libitum were used throughout all studies; rats were fasted 18-24 hours prior to treatment with epinephrine (0.2 mg/kg i.p.) which was given intraperitoneally. Drug or vehicle were given 30 minutes prior to epinephrine. Blood samples were taken from the tail vein for measurement of glucose changes prior to and at 45 and 90 minutes after administration of epinephrine bitartrate (Sigma Co., St. Louis, MO). Blood glucose was determined using Autoflo Glucose (Bio-Dyanamics/bmc, Indianapolis, IN).
**reported as maximum % lowering; methodology as described by G. F. Tutwiler in Biochemical Medicine, Vol. 22, pp. 204 (1979).

[1] = target: T1, fructose-1,6-biphosphatase (Rattus norvegicus, UniProt P19112); experiment: Rat liver fructose-1,6-biphosphatase inhibition; format: biochemical; settings: competitive inhibitors; rat liver enzyme, in vitro
T1 construct: from tissue; host or cells: rat liver
T1 sequence (P19112 2-363 limits assumed): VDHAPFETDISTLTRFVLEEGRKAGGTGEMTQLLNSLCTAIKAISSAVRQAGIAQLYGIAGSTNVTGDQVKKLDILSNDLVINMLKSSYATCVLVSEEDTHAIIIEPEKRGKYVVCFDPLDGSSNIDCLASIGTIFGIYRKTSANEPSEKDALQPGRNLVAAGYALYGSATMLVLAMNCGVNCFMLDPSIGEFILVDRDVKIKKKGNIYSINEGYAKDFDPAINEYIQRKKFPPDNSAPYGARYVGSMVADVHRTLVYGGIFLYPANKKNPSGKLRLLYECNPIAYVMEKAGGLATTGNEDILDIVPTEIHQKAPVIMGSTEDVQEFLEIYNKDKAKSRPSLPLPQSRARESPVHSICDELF
Description: as §1
1. Rat liver fructose-1,6-biphosphatase inhibition*:
*Methodology as described by S. J. Benkovic, et al. in Biochemistry, Vol. 10, No. 26, pp. 4881-4887 (1971).

6-phosphofructo-1-kinase [2] = target: T2, 6-phosphofructo-1-kinase (Rattus norvegicus, UniProt P30835); experiment: Allosteric activation of rat liver 6-phosphofructo-1-kinase; format: biochemical; settings: rat liver enzyme, in vitro; read-out: half-maximal concentration, allosteric activation
T2 construct: from tissue; host or cells: rat liver
T2 sequence (P30835 2-780 limits assumed): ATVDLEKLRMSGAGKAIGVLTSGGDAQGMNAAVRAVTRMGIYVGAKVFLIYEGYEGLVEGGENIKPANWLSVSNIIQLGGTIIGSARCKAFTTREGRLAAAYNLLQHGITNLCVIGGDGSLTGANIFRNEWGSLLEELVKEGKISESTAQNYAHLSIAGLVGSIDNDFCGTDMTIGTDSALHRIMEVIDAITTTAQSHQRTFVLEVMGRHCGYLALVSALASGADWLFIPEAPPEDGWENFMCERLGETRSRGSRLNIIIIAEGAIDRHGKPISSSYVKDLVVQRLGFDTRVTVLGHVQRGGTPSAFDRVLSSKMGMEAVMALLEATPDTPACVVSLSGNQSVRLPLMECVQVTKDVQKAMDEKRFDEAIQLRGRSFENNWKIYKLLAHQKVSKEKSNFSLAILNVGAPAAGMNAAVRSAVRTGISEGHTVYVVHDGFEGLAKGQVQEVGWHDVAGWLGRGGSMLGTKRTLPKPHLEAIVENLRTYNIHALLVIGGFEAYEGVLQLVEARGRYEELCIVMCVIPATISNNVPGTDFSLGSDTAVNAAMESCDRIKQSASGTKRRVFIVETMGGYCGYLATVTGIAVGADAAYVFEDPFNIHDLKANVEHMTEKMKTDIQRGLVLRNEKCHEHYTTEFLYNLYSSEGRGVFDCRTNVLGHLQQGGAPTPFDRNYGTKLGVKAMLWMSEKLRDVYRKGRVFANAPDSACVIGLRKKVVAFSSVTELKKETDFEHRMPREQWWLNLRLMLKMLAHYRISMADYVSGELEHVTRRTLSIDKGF
Description: as §1
2. Allosteric activation of rat liver 6-phosphofructo-1-kinase
reported as half-maximal concentrations; methodology as described by S. J. Pilkis, et al. in The Journal of Biol. Chem., Vol. 256, pp. 3171 (1981).

6-phosphofructo-1-kinase [3] = settings: cited from earlier work
[4] = test system: fructose-1,6-biphosphatase; settings: cited from earlier work

| SMILES | part of the drug effect due to the cyclohexylamine base (blood glucose; cyclohexylamine base used to crystallize Example 1d, Example 1d at 100 mg/kg i.p.) | maximum % lowering (blood glucose) (blood glucose) | Ki [1] | EC50 (6-phosphofructo-1-kinase [2]) | stimulation of 6-phosphofructo-1-kinase (in words) (6-phosphofructo-1-kinase [3]) | inhibition of fructose-1,6-biphosphatase (in words) [4] |
| --- | --- | --- | --- | --- | --- | --- |
| NC1CCCCC1 [cyclohexylamine] | approximately one-half of the drug effect |  |  |  |  |  |
| O=P(O)(O)OC[C@H]1O[C@@H](OP(=O)(O)O)[C@@H](O)[C@@H]1O [Example 1d, β-D-Arabinose-1,5-diphosphate] |  | 85% | 3400 nM | 1000 nM |  |  |
| O=P(O)(O)OC[C@H]1O[C@@](CO)(OP(=O)(O)O)[C@@H](O)[C@@H]1O [Compound (A), β-D-fructose-2,6-diphosphate, reference compound] |  | 0% | 100 to 200 nM | 50 nM | activates glycolysis by stimulating 6-phosphofructo-1-kinase | deactivates gluconeogenesis by inhibiting fructose-1,6-biphosphatase |
| O=P(O)(O)OC[C@H]1O[C@H](OP(=O)(O)O)[C@@H](O)[C@@H]1O [Example 2b, α-D-Arabinose-1,5-diphosphate] |  |  | 30000 to 40000 nM | 500 nM |  |  |
